# Columns and labels:
# [1] = system: rat uterine decidualization; assay: Rat decidualization assay; assay type: in vivo; settings: po, read-out: ED50 in the rat decidual assay
# Experimental: B. Progestational and Antiprogestational Activity in Mature Ovariectomized Rats (Rat Decidualization Assay)
# This assay is used to evaluate the effect of progestins and antiprogestins on rat uterine decidualization and compare the relative potencies of various test compounds.
# Test compounds are dissolved in 100% ethanol and mixed with corn oil (vehicle). Stock solutions of the test compounds in oil (Mazola™) are then prepared by heating (˜80° C.) the mixture to evaporate ethanol. Test compounds are subsequently diluted with 100% corn oil or 10% ethanol in corn oil prior to the treatment of animals. No difference in decidual response is found when these two vehicles are compared. […]
# Approximately 24 hr after the third injection, decidualization is induced in one of the uterine horns of anesthetized rats by scratching the antimesometrial luminal epithelium with a blunt 21 G needle. […] Approximately 24 hr following the final treatment, rats are sacrificed by […] and bodyweight measured. […]
# In agonist mode, the increase in weight of the decidualized uterine horn is calculated by D-horn/C-horn and logarithmic transformation is used to maximize normality and homogeneity of variance. […] EC50 is calculated from the transformed value. […] IC50 is calculated from the retransformed value. […]
# menses induction = assay: Cynomolgus monkey menses induction assay; assay type: in vivo; settings: 5 mg/kg po
# Experimental: C. Cynomolgus Monkey […] Induction 1. Experimental Design The effects of administered compound(s) in either a single dose or a dose-response paradigm versus an appropriate control (vehicle alone) are determined. When a compound is tested at a single dose, a group of four animals will be used for the dose. In the dose response study, each experiment will involve up to 5 groups of animals (a control group and 4 groups of animals treated with varying doses of the compound). Experimental groups will contain 3-4 animals/group, since this sample size is commonly used in the literature and has been found appropriate based on our own experience. The animals are treated with test compounds once or twice daily for 4 days in the mid-luteal phase of the menstrual cycle to assess the efficacy of the compounds on the reproductive parameters menstruation. 2. Procedures Initially, animals are characterized in terms of their reproductive cyclicity by observing time of menstruation. Only those animals with two consecutive normal cycles are used to evaluate test compounds. […] will be determined by daily gross examination for vaginal bleeding. In each experiment, animals will be treated once or twice daily IV, IM, SC or PO with the test compound. Appropriate vehicles will be determined for each route of administration and will be specified through protocol amendments. […]
# [2] = Cynomolgus monkey intravenous pharmacokinetics; settings: in vivo, cynomolgus monkeys, 0.25 mg/kg i.v.
# Source text: Therefore from the preceding data it is clear that the R6=fluorine group present in 5-(7-fluoro-3,3-dimethyl-2-oxo-2,3-dihydro-1H-indol-5-yl)-1-methyl-1H-pyrrole-2-carbonitrile dramatically improves the pharmacokinetic performance of the molecule. This improved pharmacokinetic performance translates in the cynomolgus menses induction assay to a dramatic improvement in activity.
compound,measurement,setting,value
"Cn1c(C#N)ccc1-c1ccc2c(c1)C(C)(C)C(=O)N2 [5-(3,3-Dimethyl-2-oxo-2,3-dihydro-1H-indol-5-yl)-1-methyl-1H-pyrrole-2-carbonitrile, reference compound]",ED50,[1],0.2 mg/kg
same,induction of early onset of menses,menses induction,not active
same,AUC(0-inf),[2]; read-out: exposure (AUC0-∞),343 ng·h/mL
same,half-life,[2]; read-out: mean half life (t1/2) (converted),2.1 h

# — patent publication US7317037B2, “Progesterone receptor modulators comprising pyrrole-oxindole derivatives and uses thereof” (Wyeth, priority 2004, dated 2008)
